Measurements reported in paper PMC7504677, “Impact of N-Alkylamino Substituents on Serotonin Receptor (5-HTR) Affinity and Phosphodiesterase 10A (PDE10A) Inhibition of Isoindole-1,3-dione Derivatives” (Molecules, 2020).

Assays:
[1] = tested on: HePG2 human liver cancer cell-line; assay: MTT cytotoxicity assay; format: cell-based; conditions: HepG2 cells, 24 h, 0.1–100 µM
Experimental: (§1) The HePG2 human liver cancer cell-line, (ATCC® 59195™) and the SH-SY5Y human neuroblastoma cell-line (ATCC® CRL-2266™) were used in the study. The cells were cultured in standard conditions (37 °C, 5% CO2), in EMEM (HepG2 and SH-SY5Y), supplemented with 10% fetal bovine serum (FBS) (Gibco, Thermo Fisher Scientific, Waltham, MA. USA) and antibiotics (Lonza, Köln, Germany).
(§2) The MTT assay was used to determine the cytotoxic effects of the analyzed compounds. Cells were seeded at a density of 2 × 10^4 in 96-well plates. Following overnight culture, cells were then treated with increasing concentrations of compound 18 (0.1–100 µM) and incubated for 24 h. Following cell exposure for 24 h, 10 µL MTT reagent (Sigma Aldrich) was added to each well and, after 3 h of incubation (37 °C, 5% CO2), the medium was aspirated and the formazan produced in the cells appeared as dark crystals in the bottom of the wells. Next, Crystal DMSO was added to each well. Then, the optical density (OD) of each well was determined at 570 nm on a plate-reader (Spectra iD3, Molecular Devices, San Jose, CA, USA). The number of metabolically active and living cells is directly proportional to the absorbance of the samples. The results are presented in Figure 5 as the percentage of control ± SEM. Doxorubicin was used as reference standard (cytotoxic agent).

[2] = tested on: SH-SY5Y human neuroblastoma cell-line; assay: MTT cytotoxicity assay; format: cell-based; conditions: SHSY-5Y cells, 24 h, 0.1–100 µM
Experimental: as §1, §2

PDE10A = PDE10A (Homo sapiens, UniProt Q9Y233); assay: luminescence PDE inhibition assay (PDElight HTS cAMP phosphodiesterase assay kit); format: biochemical
Experimental: Test and reference compounds were dissolved in dimethyl sulfoxide (DMSO) at a concentration of 1 mM and further diluted in assay buffer in order to obtain the final concentration of compounds: 10 µM and 3 µM, respectively. All reactions were carried out at 37 °C in white, half-area 96-well plates (Perkin Elmer, Waltham, MA, USA). The inhibition of PDE 10A enzyme was measured using the PDElight HTS cAMP phosphodiesterase assay kit (Lonza) according to the manufacturer’s recommendations. 2.5 U of PDE 10A enzyme was preincubated either with DMSO (vehicle control) or compound for 20 min before incubation with the substrate, cAMP (final concentration 1.25 µM), for 1 h. Then, PDELight AMP Detection Reagent was added. After 10 min incubation, the luminescence was measured in a multifunction plate reader (POLARstar Omega, BMG Labtech, Ortenberg, Germany).

CD-1 mice [3] = assay: d-amphetamine-induced hyperlocomotor activity; format: in vivo
Experimental: The experiments were performed on male CD-1 mice (in the accredited animal facility at the Jagiellonian University Medical College, Krakow, Poland), and mice were kept in groups of ten in Makrolon type 3 cages (dimensions 26.5 × 15 × 42 cm). The animals were kept in an environmentally controlled room (ambient temperature 22 ± 2 °C; relative humidity 50–60%; 12:12 light:dark cycle, lights on at 8:00). They were allowed to acclimatize with the environment for one week before commencement of the experiments. Standard laboratory food (Ssniff M-Z) and filtered water were freely available. All the experimental procedures were approved by the I Local Ethics Commission at the Jagiellonian University in Krakow (Approval Nos.: 125/2017, 123/2015, and 158/2017). All the experiments were conducted in the light phase between 09.00 and 14.00 h. Each experimental group consisted of 7–10 animals per treatment dose. The animals were used only once. Locomotor activity was recorded with an Opto M3 multi-channel activity monitor (MultiDevice Software v.1.3, Columbus Instruments, Columbus, OH, USA). The CD-1 mice were individually placed in plastic cages (22 × 12 × 13 cm) immediately after drug administration, and then ambulation was counted during 1 h with data recording every 10 min. The cages were cleaned up with 70% ethanol after each mouse. […] All compounds were injected at a volume of 10 mL/kg. Control animals received a vehicle injection according to the same schedule.

CD-1 mice [4] = assay: spontaneous locomotor activity; format: in vivo; conditions: for spontaneous locomotor activity: mean ± S.E.M.
Experimental: The experiments were performed on male CD-1 mice (in the accredited animal facility at the Jagiellonian University Medical College, Krakow, Poland), and mice were kept in groups of ten in Makrolon type 3 cages (dimensions 26.5 × 15 × 42 cm). The animals were kept in an environmentally controlled room (ambient temperature 22 ± 2 °C; relative humidity 50–60%; 12:12 light:dark cycle, lights on at 8:00). They were allowed to acclimatize with the environment for one week before commencement of the experiments. Standard laboratory food (Ssniff M-Z) and filtered water were freely available. All the experimental procedures were approved by the I Local Ethics Commission at the Jagiellonian University in Krakow (Approval Nos.: 125/2017, 123/2015, and 158/2017).
All the experiments were conducted in the light phase between 09.00 and 14.00 h. Each experimental group consisted of 7–10 animals per treatment dose. The animals were used only once.
Locomotor activity was recorded with an Opto M3 multi-channel activity monitor (MultiDevice Software v.1.3, Columbus Instruments, Columbus, OH, USA). The CD-1 mice were individually placed in plastic cages (22 × 12 × 13 cm) immediately after drug administration, and then ambulation was counted during 1 h with data recording every 10 min. The cages were cleaned up with 70% ethanol after each mouse.
Locomotor activity was recorded according to the method described above.
All compounds were injected at a volume of 10 mL/kg. Control animals received a vehicle injection according to the same schedule.

5-HT7 receptor = 5-HT7 receptor (Homo sapiens, UniProt P34969); assay: radioligand binding assay, [3H]-LSD; conditions: read-out: 5-HT7 1 µM ± SEM (% of control specific binding)
Experimental: (§3) Briefly: binding experiments were conducted in 96-well microplates in a total final volume of 250 μL of appropriate buffers. Reaction mix included 50 μL solution of test compound, 50 μL of radioligand ([^3H]8-OH-DPAT for 5-HT1A, and [^3H]-LSD for 5-HT7, respectively) and 150 μL of diluted membranes (see description and Table S2 in Supporting Materials). Specific assay conditions for each receptor are described elsewhere. The radioactivity was measured in a MicroBeta2 scintillation counter (PerkinElmer, USA). Each compound was tested in the assay as duplicate samples at 1 µM final concentrations. Results were expressed as percent inhibition of specific binding.

5-HT2A receptor = target: T1, 5-HT2A receptor (Homo sapiens, UniProt P28223); assay: CEREP screening, inhibition of control binding; conditions: CEREP Laboratories, read-out: percent of inhibition of the control binding for 5-HT2A
T1 construct: Cerep (protocol)

5-HT1A receptor = target: T2, 5-HT1A receptor (Homo sapiens, UniProt P08908); assay: radioligand binding assay, [3H]8-OH-DPAT; conditions: read-out: 5-HT1A 1 µM ± SEM (% of control specific binding)
T2 sequence (P08908 1-422): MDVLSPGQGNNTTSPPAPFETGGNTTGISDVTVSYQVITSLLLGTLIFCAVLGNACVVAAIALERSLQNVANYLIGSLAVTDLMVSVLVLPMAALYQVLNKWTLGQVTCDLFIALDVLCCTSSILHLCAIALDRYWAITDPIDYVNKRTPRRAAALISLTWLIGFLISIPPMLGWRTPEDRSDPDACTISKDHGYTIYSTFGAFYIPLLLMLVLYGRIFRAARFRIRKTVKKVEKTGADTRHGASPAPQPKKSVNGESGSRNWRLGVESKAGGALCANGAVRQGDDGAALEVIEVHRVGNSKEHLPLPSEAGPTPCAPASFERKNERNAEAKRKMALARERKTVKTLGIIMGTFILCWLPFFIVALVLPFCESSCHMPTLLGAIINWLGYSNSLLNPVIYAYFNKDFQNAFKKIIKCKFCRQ
Experimental: as §3

D2 receptor = target: T3, D2 receptor (Homo sapiens, UniProt P14416); assay: CEREP screening, inhibition of control binding; conditions: CEREP Laboratories, read-out: percent of inhibition of the control binding for D2
T3 construct: Cerep (protocol)

[5] = 60 mg/kg ip, 10 min of the test
[6] = 60 mg/kg ip, 20 min of the test
[7] = 60 mg/kg ip, 30 min of the test
[8] = 60 mg/kg ip, 60 min of the test

Chain of PDE10A (Q9Y233 whole entry, species assumed): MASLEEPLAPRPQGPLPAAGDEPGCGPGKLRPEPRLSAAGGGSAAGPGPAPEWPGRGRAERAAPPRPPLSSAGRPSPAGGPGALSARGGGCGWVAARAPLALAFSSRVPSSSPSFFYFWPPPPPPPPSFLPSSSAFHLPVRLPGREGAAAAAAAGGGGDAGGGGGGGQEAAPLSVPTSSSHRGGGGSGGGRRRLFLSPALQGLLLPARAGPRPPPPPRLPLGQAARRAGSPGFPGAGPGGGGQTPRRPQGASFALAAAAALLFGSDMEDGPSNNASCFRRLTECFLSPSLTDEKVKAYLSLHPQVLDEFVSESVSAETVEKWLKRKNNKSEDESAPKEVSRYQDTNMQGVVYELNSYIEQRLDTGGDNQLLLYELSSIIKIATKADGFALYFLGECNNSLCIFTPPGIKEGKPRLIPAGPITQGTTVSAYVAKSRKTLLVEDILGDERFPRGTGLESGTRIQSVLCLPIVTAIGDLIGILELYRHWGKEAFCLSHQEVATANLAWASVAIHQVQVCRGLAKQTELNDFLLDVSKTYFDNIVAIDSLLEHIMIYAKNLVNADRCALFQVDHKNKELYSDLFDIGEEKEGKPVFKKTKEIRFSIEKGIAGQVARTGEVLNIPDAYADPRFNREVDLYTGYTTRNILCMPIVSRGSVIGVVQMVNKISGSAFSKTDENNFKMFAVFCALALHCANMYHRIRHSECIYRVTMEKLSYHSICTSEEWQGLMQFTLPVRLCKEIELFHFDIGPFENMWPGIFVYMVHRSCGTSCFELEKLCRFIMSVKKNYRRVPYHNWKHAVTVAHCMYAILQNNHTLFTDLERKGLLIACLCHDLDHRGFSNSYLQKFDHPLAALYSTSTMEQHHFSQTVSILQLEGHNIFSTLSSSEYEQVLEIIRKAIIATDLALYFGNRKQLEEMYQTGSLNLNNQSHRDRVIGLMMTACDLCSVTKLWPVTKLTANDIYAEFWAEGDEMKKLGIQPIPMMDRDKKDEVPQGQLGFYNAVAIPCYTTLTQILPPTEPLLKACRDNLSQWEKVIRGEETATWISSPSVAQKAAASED
T3 sequence (P14416 whole entry): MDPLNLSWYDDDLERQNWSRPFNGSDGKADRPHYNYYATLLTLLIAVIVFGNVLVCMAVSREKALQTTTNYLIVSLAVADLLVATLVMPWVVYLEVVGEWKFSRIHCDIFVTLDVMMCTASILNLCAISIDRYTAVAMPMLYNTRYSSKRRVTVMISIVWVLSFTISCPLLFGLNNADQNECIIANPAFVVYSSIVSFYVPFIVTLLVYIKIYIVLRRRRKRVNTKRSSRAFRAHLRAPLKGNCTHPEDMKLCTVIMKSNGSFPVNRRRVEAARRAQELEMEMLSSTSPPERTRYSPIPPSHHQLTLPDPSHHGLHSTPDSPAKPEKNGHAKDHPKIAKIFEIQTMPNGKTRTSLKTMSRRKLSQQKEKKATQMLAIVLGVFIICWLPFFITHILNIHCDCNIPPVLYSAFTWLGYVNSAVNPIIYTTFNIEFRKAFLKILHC
Chain of 5-HT7 receptor (P34969 whole entry): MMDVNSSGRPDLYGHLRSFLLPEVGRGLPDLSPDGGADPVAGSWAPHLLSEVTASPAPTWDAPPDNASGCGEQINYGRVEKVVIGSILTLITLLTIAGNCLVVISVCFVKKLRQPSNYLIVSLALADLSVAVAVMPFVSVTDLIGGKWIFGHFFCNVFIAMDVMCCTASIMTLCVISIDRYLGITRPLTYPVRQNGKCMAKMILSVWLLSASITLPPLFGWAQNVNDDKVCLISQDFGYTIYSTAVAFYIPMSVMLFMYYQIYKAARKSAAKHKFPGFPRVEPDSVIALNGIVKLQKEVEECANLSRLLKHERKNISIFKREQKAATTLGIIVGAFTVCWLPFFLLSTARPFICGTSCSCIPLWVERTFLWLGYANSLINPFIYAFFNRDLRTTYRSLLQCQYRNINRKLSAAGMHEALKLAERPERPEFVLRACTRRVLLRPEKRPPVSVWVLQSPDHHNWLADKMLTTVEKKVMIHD
T1 sequence (P28223 whole entry): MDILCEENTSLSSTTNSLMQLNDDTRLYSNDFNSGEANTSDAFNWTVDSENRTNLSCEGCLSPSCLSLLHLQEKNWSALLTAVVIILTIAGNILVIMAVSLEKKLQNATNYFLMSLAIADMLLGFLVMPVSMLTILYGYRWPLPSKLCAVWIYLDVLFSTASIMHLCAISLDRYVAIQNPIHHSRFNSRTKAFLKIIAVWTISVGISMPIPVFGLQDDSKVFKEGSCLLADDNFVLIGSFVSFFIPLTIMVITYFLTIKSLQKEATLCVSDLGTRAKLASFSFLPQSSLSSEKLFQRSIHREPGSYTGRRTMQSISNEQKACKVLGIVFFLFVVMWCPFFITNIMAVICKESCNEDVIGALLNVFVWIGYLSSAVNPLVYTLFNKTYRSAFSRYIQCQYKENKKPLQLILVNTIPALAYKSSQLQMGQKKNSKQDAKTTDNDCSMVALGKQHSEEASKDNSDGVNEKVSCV

Structure (SMILES): COc1cccc2c1C(=O)c1c(O)c3c(c(O)c1C2=O)C[C@@](O)(C(=O)CO)C[C@@H]3O[C@H]1C[C@H](N)[C@H](O)[C@H](C)O1 [doxorubicin, reference compound]
- cell viability (MTT) [1]: significantly decreased cell viability already at much lower concentrations
- cell viability (MTT) [2]: significantly decreased cell viability already at much lower concentrations

Structure (SMILES): COc1cccc2c1C(=O)N(CCCCc1nc3ccccc3[nH]1)C2=O [Compound 18, 2-[4-(1H-Benzimidazol-2-yl)butyl]-4-methoxy-1H-isoindole-1,3(2H)-dione]
- melting point: 69 to 70 °C
- inhibition at 3 µM (PDE10A; 1 h, percentage of inhibition respective to vehicle control (DMSO), 3 µM): 79%
- inhibition at 10 µM (PDE10A; 1 h, percentage of inhibition respective to vehicle control (DMSO), 10 µM): 92%
- IC50 (PDE10A; SEM of three independent experiments performed in duplicate): 0.886 ± 0.017 µM
- effect on AMPH-induced hyperactivity (CD-1 mice [3]; 60 mg/kg ip): decreased AMPH-induced hyperactivity, but only for the first 10 min after injection
- effect on AMPH-induced hyperactivity (CD-1 mice [3]; lower doses (data not shown)): did not change the stimulating effect of AMPH
- cell viability (MTT) [1]: Decreasing cell viability (HepG2/SHSY-5Y) is observed only at higher concentrations
- cell viability (MTT) [2]: Decreasing cell viability (HepG2/SHSY-5Y) is observed only at higher concentrations
- effect on spontaneous locomotor activity (CD-1 mice [4]; 60 mg/kg): locomotor-suppressing effects were observed
- spontaneous locomotor activity (CD-1 mice [4]; [5]): 176.2
- spontaneous locomotor activity (CD-1 mice [4]; [6]): 285.0
- spontaneous locomotor activity (CD-1 mice [4]; [7]): 659.6
- spontaneous locomotor activity (CD-1 mice [4]; [8]): 1875.4
- inhibition at 1 µM (5-HT7 receptor): 3 ± 1%
- inhibition at 1 µM (5-HT2A receptor): 8.8%
- inhibition at 1 µM (5-HT1A receptor): 28 ± 3%
- inhibition at 1 µM (D2 receptor): 0%

Structure (SMILES): COc1ccc(Cc2nccc3cc(OC)c(OC)cc23)cc1OC [Papaverine, papaverine]
- PDE10A [%] 3 µM (PDE10A; percentage of inhibition respective to vehicle control (DMSO), 3 µM): 54%
- PDE10A [%] 10 µM (PDE10A; percentage of inhibition respective to vehicle control (DMSO), 10 µM): 75%
- effect on AMPH-induced hyperactivity (CD-1 mice [3]; 40 and 60 mg/kg ip): dose-dependently antagonized this response
- effect on AMPH-induced hyperactivity (CD-1 mice [3]; lower doses (data not shown)): did not change the stimulating effect of AMPH
- spontaneous locomotor activity (CD-1 mice [4]; 40 mg/kg ip, 10 min of the test): 43.1
- spontaneous locomotor activity (CD-1 mice [4]; 40 mg/kg ip, 20 min of the test): 170.2
- spontaneous locomotor activity (CD-1 mice [4]; 40 mg/kg ip, 30 min of the test): 571.9
- spontaneous locomotor activity (CD-1 mice [4]; 40 mg/kg ip, 60 min of the test): 2260.8
- spontaneous locomotor activity (CD-1 mice [4]; [5]): 7.1
- spontaneous locomotor activity (CD-1 mice [4]; [6]): 24.6
- spontaneous locomotor activity (CD-1 mice [4]; [7]): 47.5
- spontaneous locomotor activity (CD-1 mice [4]; [8]): 200.4
- effect on spontaneous locomotor activity (CD-1 mice [4]; 40 and 60 mg/kg): locomotor-suppressing effects were observed
